According to PubChem BioAssay (NCI):
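In this assay, cells in 96-well plates receive the compound at five concentrations for 48 hours. Endpoints are linearly interpolated between the surrounding concentrations. GI50 is the concentration that inhibits growth by half. The concentration for full growth arrest is given as TGI.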

Columns and labels:
Test in all cases: NCI-60 cell line screen, 48 h
T-47D breast = system: T-47D breast
SF-268 CNS = system: SF-268 CNS
RPMI-8226 leukemia = system: RPMI-8226 leukemia
PC-3 prostate = system: PC-3 prostate
HCT-15 colon = system: HCT-15 colon
HOP-62 NSCLC = system: HOP-62 NSCLC
UACC-62 melanoma = system: UACC-62 melanoma
SF-539 CNS = system: SF-539 CNS
SF-295 CNS = system: SF-295 CNS
SK-OV-3 ovarian = system: SK-OV-3 ovarian
OVCAR-4 ovarian = system: OVCAR-4 ovarian
EKVX NSCLC = system: EKVX NSCLC
MCF7 breast = system: MCF7 breast
SK-MEL-2 melanoma = system: SK-MEL-2 melanoma
BT-549 breast = system: BT-549 breast
U251 CNS = system: U251 CNS
A498 renal = system: A498 renal
CAKI-1 renal = system: CAKI-1 renal
IGROV1 ovarian = system: IGROV1 ovarian
HL-60(TB) leukemia = system: HL-60(TB) leukemia
TK-10 renal = system: TK-10 renal
KM12 colon = system: KM12 colon
HCT-116 colon = system: HCT-116 colon
HOP-92 NSCLC = system: HOP-92 NSCLC
A549 NSCLC = system: A549 NSCLC
M14 melanoma = system: M14 melanoma
NCI-H23 lung = system: NCI-H23 lung
MDA-MB-435 = system: MDA-MB-435
K-562 leukemia = system: K-562 leukemia
NCI-H226 lung = system: NCI-H226 lung
SR leukemia = system: SR leukemia
NCI/ADR-RES ovarian = system: NCI/ADR-RES ovarian
SW-620 colon = system: SW-620 colon
SNB-75 CNS = system: SNB-75 CNS
HCC-2998 colon = system: HCC-2998 colon
MDA-MB-231 breast = system: MDA-MB-231 breast
SN12C renal = system: SN12C renal
786-0 renal = system: 786-0 renal
SK-MEL-28 melanoma = system: SK-MEL-28 melanoma
OVCAR-5 ovarian = system: OVCAR-5 ovarian
HS 578T breast = system: HS 578T breast
NCI-H460 lung = system: NCI-H460 lung
HT29 colon = system: HT29 colon
DU-145 prostate = system: DU-145 prostate
COLO 205 colon = system: COLO 205 colon
ACHN renal = system: ACHN renal
RXF 393 renal = system: RXF 393 renal
LOX IMVI melanoma = system: LOX IMVI melanoma
MOLT-4 leukemia = system: MOLT-4 leukemia
UO-31 renal = system: UO-31 renal
UACC-257 melanoma = system: UACC-257 melanoma
MALME-3M melanoma = system: MALME-3M melanoma
SNB-19 CNS = system: SNB-19 CNS
OVCAR-3 ovarian = system: OVCAR-3 ovarian
CCRF-CEM leukemia = system: CCRF-CEM leukemia
SK-MEL-5 melanoma = system: SK-MEL-5 melanoma
NCI-H522 lung = system: NCI-H522 lung

## CCCCCSC1C2C(=O)C(Br)=CC13CCNc1c(O)c4c5c(c13)=[N+]2CCC=5C=N4 (centres undefined)
T-47D breast
  GI50: 1740 nM
  TGI: 6030 nM
SF-268 CNS
  GI50: 2100 nM
  TGI: 5340 nM
RPMI-8226 leukemia
  GI50: 3650 nM
  TGI: 11000 nM
PC-3 prostate
  GI50: 2000 nM
  TGI: 7450 nM
HCT-15 colon
  GI50: 2040 nM
  TGI: 6090 nM
HOP-62 NSCLC
  GI50: 3030 nM
  TGI: 5800 nM
UACC-62 melanoma
  GI50: 952 nM
  TGI: 3750 nM
SF-539 CNS
  GI50: 2780 nM
  TGI: 5080 nM
SF-295 CNS
  GI50: 3890 nM
  TGI: 9610 nM
SK-OV-3 ovarian
  GI50: 3220 nM
  TGI: 6430 nM
OVCAR-4 ovarian
  GI50: 256 nM
  TGI: 609 nM
EKVX NSCLC
  GI50: 1820 nM
  TGI: 5070 nM
MCF7 breast
  GI50: 341 nM
  TGI: 883 nM
SK-MEL-2 melanoma
  GI50: 2100 nM
  TGI: 5600 nM
BT-549 breast
  GI50: 2610 nM
  TGI: 4960 nM
U251 CNS
  GI50: 2560 nM
  TGI: 5670 nM
A498 renal
  GI50: 3010 nM
  TGI: 6610 nM
CAKI-1 renal
  GI50: 2470 nM
  TGI: 4790 nM
IGROV1 ovarian
  GI50: 913 nM
  TGI: 3610 nM
HL-60(TB) leukemia
  GI50: 671 nM
  TGI: 2400 nM
TK-10 renal
  GI50: 2980 nM
  TGI: 5340 nM
KM12 colon
  GI50: 2530 nM
  TGI: 6260 nM
HCT-116 colon
  GI50: 419 nM
  TGI: 1280 nM
HOP-92 NSCLC
  GI50: 3020 nM
  TGI: 6200 nM
A549 NSCLC
  GI50: 2880 nM
  TGI: 5800 nM
M14 melanoma
  GI50: 1510 nM
  TGI: 3680 nM
NCI-H23 lung
  GI50: 1330 nM
  TGI: 6210 nM
MDA-MB-435
  GI50: 304 nM
  TGI: 571 nM
K-562 leukemia
  GI50: 2620 nM
  TGI: 12200 nM
NCI-H226 lung
  GI50: 3150 nM
  TGI: 6320 nM
SR leukemia
  GI50: 1350 nM
  TGI: 14700 nM
NCI/ADR-RES ovarian
  GI50: 4420 nM
  TGI: 16700 nM
SW-620 colon
  GI50: 545 nM
  TGI: 1550 nM
SNB-75 CNS
  GI50: 2350 nM
  TGI: 4560 nM
HCC-2998 colon
  GI50: 1250 nM
  TGI: 3880 nM
MDA-MB-231 breast
  GI50: 417 nM
  TGI: 1500 nM
SN12C renal
  GI50: 414 nM
  TGI: 1120 nM
786-0 renal
  GI50: 2700 nM
  TGI: 5120 nM
SK-MEL-28 melanoma
  GI50: 2120 nM
  TGI: 4550 nM
OVCAR-5 ovarian
  GI50: 3070 nM
  TGI: 7080 nM
HS 578T breast
  GI50: 5470 nM
  TGI: 16700 nM
NCI-H460 lung
  GI50: 1130 nM
  TGI: 4320 nM
HT29 colon
  GI50: 490 nM
  TGI: 1540 nM
DU-145 prostate
  GI50: 1740 nM
  TGI: 3720 nM
COLO 205 colon
  GI50: 303 nM
  TGI: 613 nM
ACHN renal
  GI50: 1750 nM
  TGI: 3970 nM
RXF 393 renal
  GI50: 1870 nM
  TGI: 4420 nM
LOX IMVI melanoma
  GI50: 842 nM
  TGI: 3350 nM
MOLT-4 leukemia
  GI50: 762 nM
  TGI: 5730 nM
UO-31 renal
  GI50: 2110 nM
  TGI: 4420 nM
UACC-257 melanoma
  GI50: 385 nM
  TGI: 1200 nM
MALME-3M melanoma
  GI50: 332 nM
  TGI: 1370 nM
SNB-19 CNS
  GI50: 2690 nM
  TGI: 4970 nM
OVCAR-3 ovarian
  GI50: 405 nM
  TGI: 1440 nM
CCRF-CEM leukemia
  GI50: 1010 nM
  TGI: 11600 nM
SK-MEL-5 melanoma
  GI50: 1850 nM
  TGI: 3960 nM
NCI-H522 lung
  GI50: 452 nM
  TGI: 1260 nM
